{"source": "patent US11446276B2", "about": "“Extreme low dose THC as a therapeutic and prophylactic agent for Alzheimer's disease” (University of South Florida, priority 2015, dated 2022)", "key": {"[1]": {"tested_on": "GSK-3β", "assay": "Western blot of GSK-3β in N2a/AβPPswe cells", "format": "cell-based", "protocol": "Next, the effects of THC on amyloid protein processing were analyzed by testing total GSK-30 and phosphorylated GSK-3β (pGSK-3β) levels. β-actin, a housekeeping gene, was used as a control to indicate that GSK-3β was expressed at a constant rate and that the changes in intensity were not related to the change in expression amount.\nThe cellular effects of THC were next analyzed. As Aβ processing is mediated by GSK-3β, protein levels were tested. N2a/AβPPswe cells were treated with 2.5 nM or 0.25 nM of THC, as provided in Example 1, and N2a/AβPPswe cell lysate were collected, quantified, and aliquoted.\nN2a/AβPPswe cells were cultured as provided above and Δ9-THC added at 0.25 nM and 2.5 nM, as provided in Example 1. After THC treatment for 48 hours, N2a/AβPPswe cell lysate were collected, quantified, and aliquoted. Using 12% Tris-Glycine gel system (Bio-Rad Laboratories, Inc., Hercules, Calif.), protein were separated by electrophoresis and semi-dry transferred to a polyvinylidene difluoride (PVDF) membrane. GSK-3β (Cat #9315, Cell Signaling Technology, Inc. Danvers, Mass.) and β-actin (Cat #A54441, Sigma Aldrich, Merck KGaA; Darmstadt, Germany) antibodies were used as primary antibody. After adding secondary antibody (Goat-anti-Rabbit-HRP Cat #4050-05, Southern Biotech, part of Thermo Fisher Scientific, Waltham, Mass.; Anti-mouse IgG-HRP Cat #A9044, Sigma Aldrich, Merck KGaA; Darmstadt, Germany), the membranes were exposed using ECL substrate (Pierce). After membrane was developed, film with bands were scanned, followed by analysis of gel-quantification software (QuantityOne, from Bio-rad).\nThe effects of combining THC with other compounds was analyzed using a combination of THC and melatonin. Cells were treated with 2.5 nM of THC and 10 μM or 1 μM melatonin, using the methods discussed above, and N2a/AβPPswe cell lysate collected, quantified, and aliquoted. […] After membrane was developed, film with bands were scanned, followed by analysis of gel-quantification software (QuantityOne, from Biorad)."}, "[2]": {"target": "Aβ peptide amino acids 1-10, the major B-cell epitope (Homo sapiens, UniProt P05067)", "sequence (P05067 672-711 limits assumed)": "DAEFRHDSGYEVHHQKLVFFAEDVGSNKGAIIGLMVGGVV", "assay": "ELISA for THC interference with the major B cell epitope of Aβ", "format": "binding", "settings": "each increasing concentration of THC; FIG. 3B", "protocol": "In untreated samples, Aβ peptide increased in intensity for the first 20 minutes, followed by a plateauing of fluorescence at around 30 minutes, at which time the intensity remained constant for the duration of the study. […] Therefore, THC's direct interaction with the Aβ peptide will not dampen an immune response to clear the Aβ peptide. Further analysis with western blot was performed measuring the anti-aggregation properties of THC with Aβ peptide."}, "[3]": {"settings": "in vivo; cited from earlier work"}, "[4]": {"tested_on": "GSK-3β", "settings": "10 mg/kg of body weight of THC; mice; cited from earlier work"}, "[5]": {"tested_on": "Aβ40 in N2a/AβPPswe cells", "assay": "Aβ40 ELISA after one or two THC administrations 24 hours apart", "format": "cell-based, human", "settings": "FIG. 9B", "protocol": "Studies were conducted on multiple dosings of THC. N2a/AβPPswe cells, as discussed in Example 1, were suspended to 2×10^5/mL, 3 mL plated into each well, and grown in DMEM with 10% fetal bovine serum, 100 U/mL penicillin, 100 μg/mL streptomycin, and 400 μg/mL G418 (Invitrogen), at 37° C. in the presence of 5% CO2. N2a/AβPPswe cells were subcultured using trypsin, and pipetted numerous times to ensure cells were separated into individual cells. Cells were counted, as provided in Example 1, and proper amount of cell medium and fresh medium was added into new flasks according to the ratio of dilution. Pipetting was performed 10 times to homogenize cells, and 3 mL of cells were seeded into medium into each 6 well plate. When one pipette was used up, the cells were mixed in the flask before using them for the next pipette. Compounds were suspended in DMSO, as provided in Example 1.\n12 hours after plating, cells were treated with various concentrations of Δ9-THC (T4764-1ML Sigma Aldrich, Merck KGaA; Darmstadt, Germany), with untreated N2a/AβPPswe cells used as a control. Multiple dosing regimens were carried out 24 hours after initial treatment. Treatment was then washed out, i.e. the medium was then removed from the cultures and 3 mL of media containing the treatment compounds were added. […]"}}, "note": "Entries after “also recorded” stand apart in the source; their conditions may differ."}
{"smiles": "CCCCCc1cc(O)c2c(c1)OC(C)(C)[C@@H]1CCC(C)=C[C@@H]21", "note": "[THC, Δ9-tetrahydrocannabinol]", "values": [{"measurement": "GSK-3β protein levels (ratio to β-actin)", "setting": "[1]; THC 0.25 nM and 2.5 nM, 48 hours, FIGS. 5A, 5B", "value": "dose-dependent decrease; also recorded: decreases the GSK-3β protein levels"}, {"measurement": "GSK-3 levels relative to the control", "setting": "[1]; lowest level of THC from the tests", "value": "about half"}, {"measurement": "Decrease of GSK-3β protein levels over the untreated control", "setting": "[1]; ultra-low doses of THC, FIGS. 5A, 5B", "value": "≤ 50", "unit": "%"}, {"measurement": "Interference with the major B cell epitope of Aβ (ELISA absorbance)", "setting": "[2]", "value": "No identified interference; also recorded: no significant difference in absorbance"}, {"measurement": "Bioavailability", "setting": "[3]", "value": 30, "unit": "%"}, {"measurement": "Phosphorylation of GSK-3β", "setting": "[4]", "value": "increased phosphorylation of GSK-3β"}, {"measurement": "Aβ40 (pg/ml) concentrations after one or two administrations", "setting": "[5]; designated concentrations of THC", "value": "decreases Aβ40"}, {"measurement": "Aβ40 in cells treated twice with THC 24 hours apart versus once", "setting": "[5]; from 12 μM and higher concentrations", "value": "significant decrease in Aβ40 concentration compared to cells treated once; also recorded: even greater reduction in Aβ levels"}]}
